{"source": "patent US20080113908A1", "about": "“Use of CRF receptor agonists for the treatment or Prophylaxis of diseases, for example Neurodegenerative diseases” (SmithKline Beecham plc, priority 2000, published 2008)", "tested_on": "hippocampal neurones", "test": "Amyloid-β peptide (25-35) toxicity, survival by counting viable neurons (FIGS. 8, 9)", "assay_type": "cell-based", "conditions": "Aβ(25-35) 10 μM, CRF 3-100 nM, 3 days", "protocol": "In order to test whether CRF receptor agonists protect neurones from death caused by Aβ, the following experiment was conducted (FIGS. 8 and 9). Hippocampal neurons from embryonic day 18 rat were cultured in serum-free medium (neurobasal/B27) for 9 days. The culture methods are described on page 48 of S. D. Skaper et al., J. Neurochem., 2001, 76, 47-55. Cells were then treated with amyloid-β peptide (fragment 25-35) (Sigma, cat. no. A-4559, sequence Gly-Ser-Asn-Lys-Gly-Ala-Ile-Ile-Gly-Leu-Met) at 10 μM plus the indicated CRF receptor agonist at the indicated concentration, in the same culture medium. […] Cell survival was assessed after 3 days, by fixing the cultures and counting microscopically viable neurons. Values are expressed relative to numbers of surviving neurons in untreated cultures (=100)."}
{"substance": "H-SQEPPISLDLTFHLLREVLEMTKADQLAQQAHNNRKLLDIA-NH2 [CRF]", "values": [{"measurement": "neuroprotective effect against Aβ toxicity (FIG. 8)", "value": "40-50%"}]}
